For one data set, the target named is URAT1 (SLC22A12) (Homo sapiens (Human), UniProt Q96S37). The experiment in a line: URAT1 cellular uptake assay (3H-orotate transport, stably transfected URAT-1/CHO cells). It counts as cell-based. The settings on record: 3H-orotate uptake, 7 concentrations 0.01 to 150 μM, read-out: URAT1 IC50 (μM ± SEM). The protocol: URAT1 (SLC22A12) activity was evaluated in a cellular uptake assay using a 96-well plate with stably transfected URAT-1/CHO cells. ^3H-orotate was used as the test transport agent, which was measured in a liquid scintillation counter, using benzbromarone as a positive control, and DMSO and non-transfected CHO cells as negative controls (Solvo Biotechnology, Boston, Mass.).

Data set [1] concerns the target T1, xanthine oxidase (Homo sapiens (Human), UniProt P47989). Description: Fluorescence-based xanthine oxidase activity assay. It counts as biochemical. The note with it: triplicate, 10 concentrations. The protocol: Xanthine oxidase inhibition was determined using a standard fluorescence-based assay for xanthine oxidase activity (McHale A, Grimes H, Coughlan M P: Int J Biochem. 10:317-9, 1979) with minor variations. […] Experiments on test compounds were performed in triplicate in multi-well plates using 10 concentrations of each compound that ranged over a 3-fold dilution.

Another data set concerns CHO-K1 cells. The experiment in a line: In vitro mouse micronucleus assay (a test for cytotoxicity). The data set is classed as cell-based. The note with it: 24 hr without S9 and 4 hr with S9, 62 μM-1000 μM. The protocol: The in vitro mouse micronucleus assay was conducted in CHO-K1 cells seeded in 96-well plates and treated with test compounds for 24 hr (without S9) and for 4 hr (with S9). Cytochalasin B was added after 24 hr, and the cells were incubated for an additional 24 hr, after which the cells were fixed and scored for micronuclei. The assay was run using 6 concentrations in duplicate (62 μM-1000 μM), and data for the highest 5 concentrations that were not cytotoxic were reported. Cellular nuclei and micronuclei were stained, and an automated fluorescent microscopic detection system was used to score micronuclei in approximately 2,000 bi-nucleated cells per concentration.

Data set [2] deals with T1, xanthine oxidase. The settings on record: data taken from publications; cited from earlier work.

Here are results for five compounds from patent US9428466B2, “Methods for reducing uric acid levels using barbiturate derivatives” (priority 2013, dated 2016).

The structures appear in SMILES notation. Read-outs that look alike come from different tables or passages of the source. Where only a bound is given, the exact number is not on record here.

URAT1 (SLC22A12), sequence (Q96S37 whole entry): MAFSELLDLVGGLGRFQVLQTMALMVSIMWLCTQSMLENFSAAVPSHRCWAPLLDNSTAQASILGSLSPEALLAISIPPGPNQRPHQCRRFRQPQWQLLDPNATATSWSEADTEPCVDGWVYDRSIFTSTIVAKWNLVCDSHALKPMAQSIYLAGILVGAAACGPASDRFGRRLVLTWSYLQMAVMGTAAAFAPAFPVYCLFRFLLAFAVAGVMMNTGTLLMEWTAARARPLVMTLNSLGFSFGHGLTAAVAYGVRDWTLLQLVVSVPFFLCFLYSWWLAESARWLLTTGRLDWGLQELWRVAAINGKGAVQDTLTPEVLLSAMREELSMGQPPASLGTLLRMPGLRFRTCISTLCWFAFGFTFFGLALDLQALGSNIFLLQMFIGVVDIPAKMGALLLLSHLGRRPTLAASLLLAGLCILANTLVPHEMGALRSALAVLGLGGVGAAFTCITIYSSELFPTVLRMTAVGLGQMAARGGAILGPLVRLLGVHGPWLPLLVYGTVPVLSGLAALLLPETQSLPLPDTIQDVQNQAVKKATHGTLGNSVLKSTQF
T1 sequence (P47989 whole entry, species assumed): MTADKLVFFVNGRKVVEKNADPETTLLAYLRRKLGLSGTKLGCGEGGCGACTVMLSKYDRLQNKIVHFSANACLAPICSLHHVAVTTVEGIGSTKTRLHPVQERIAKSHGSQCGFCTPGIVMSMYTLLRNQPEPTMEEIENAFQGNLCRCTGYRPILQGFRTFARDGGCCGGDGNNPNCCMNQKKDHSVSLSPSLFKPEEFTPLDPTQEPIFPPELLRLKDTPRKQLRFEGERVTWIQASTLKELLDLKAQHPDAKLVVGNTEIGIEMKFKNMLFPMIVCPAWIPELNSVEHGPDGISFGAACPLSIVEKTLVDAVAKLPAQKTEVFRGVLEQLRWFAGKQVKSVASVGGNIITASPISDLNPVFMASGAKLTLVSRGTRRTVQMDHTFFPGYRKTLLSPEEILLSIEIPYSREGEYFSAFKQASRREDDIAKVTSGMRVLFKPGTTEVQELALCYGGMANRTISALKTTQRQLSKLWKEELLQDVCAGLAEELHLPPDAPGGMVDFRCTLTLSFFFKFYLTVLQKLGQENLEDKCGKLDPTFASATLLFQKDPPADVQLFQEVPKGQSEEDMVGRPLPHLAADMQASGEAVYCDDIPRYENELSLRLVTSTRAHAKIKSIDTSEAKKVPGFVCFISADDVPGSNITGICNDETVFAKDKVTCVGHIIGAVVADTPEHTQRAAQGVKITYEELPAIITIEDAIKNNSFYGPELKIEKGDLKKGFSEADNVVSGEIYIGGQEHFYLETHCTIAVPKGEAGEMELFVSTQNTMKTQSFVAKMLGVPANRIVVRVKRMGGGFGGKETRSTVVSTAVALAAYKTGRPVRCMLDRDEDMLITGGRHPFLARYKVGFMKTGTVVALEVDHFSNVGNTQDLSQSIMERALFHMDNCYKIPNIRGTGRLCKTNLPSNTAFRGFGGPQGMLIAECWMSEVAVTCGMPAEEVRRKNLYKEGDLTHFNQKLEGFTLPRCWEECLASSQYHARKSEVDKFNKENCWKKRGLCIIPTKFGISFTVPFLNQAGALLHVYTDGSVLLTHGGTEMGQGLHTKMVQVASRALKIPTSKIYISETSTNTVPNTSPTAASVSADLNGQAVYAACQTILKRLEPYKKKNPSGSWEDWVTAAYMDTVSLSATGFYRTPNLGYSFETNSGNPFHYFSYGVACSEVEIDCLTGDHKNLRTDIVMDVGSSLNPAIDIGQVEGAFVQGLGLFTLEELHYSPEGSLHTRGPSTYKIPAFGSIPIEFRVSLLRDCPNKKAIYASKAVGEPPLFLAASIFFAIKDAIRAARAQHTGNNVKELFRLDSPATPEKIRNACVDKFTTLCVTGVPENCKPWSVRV

What is called IC50 is the concentration that gives 50% inhibition. With `O=C(Nc1ccccc1)c1c(O)[nH]c(=O)[nH]c1=O` [2-oxo-desthiomerbarone, 1,2,3,4-tetrahydro-6-hydroxy-2,4-dioxo-N-phenyl-5-pyrimidinecarboxamide], the figures for the IC50 at URAT1 (SLC22A12) and against xanthine oxidase [1] were 1.2 µM and more than 300 µM, respectively. Besides, the “Mouse Micronucleus” value with CHO-K1 cells is “Positive”.
With `O=C(Nc1ccc(O)cc1)c1c(O)[nH]c(=O)[nH]c1=O` [4′-hydroxy-2-oxo-desthiomerbarone, 1,2,3,4-tetrahydro-6-hydroxy-2,4-dioxo-N-(4′-hydroxyphenyl)-5-pyrimidinecarboxamide], the IC50 on URAT1 (SLC22A12) came out at 2.6 ± 0.6 µM; against xanthine oxidase [1] it was 1.06 µM. In addition, the “Mouse Micronucleus” value in the data set on CHO-K1 cells is “Negative”.
Take `O=C(Nc1ccc(O)cc1)c1c(O)[nH]c(=S)[nH]c1=O` [4′-hydroxymerbarone, 1,2,3,4-tetrahydro-6-hydroxy-2-thioxo-4-oxo-N-(4′-hydroxyphenyl)-5-pyrimidinecarboxamide]: the results for the IC50 on URAT1 (SLC22A12) and against xanthine oxidase [1] were 9.4 ± 0.6 µM and 0.68 µM, respectively. Also, the “Mouse Micronucleus” value in the data set on CHO-K1 cells is listed as “Negative”.
Turning to `O=C(O)CSc1nnc(Br)n1-c1ccc(C2CC2)c2ccccc12` [Lesinurad, lesinurad], at xanthine oxidase [2], the 50% inhibitory concentration (IC50) was more than 300 µM.
`O=C1NC(=S)NC(=O)C1C(=O)Nc1ccccc1` [Merbarone, 5-(N-phenylcarboxamido)-2-thio-barbituric acid, reference compound]: the IC50 was 5.4 ± 1 µM on URAT1 (SLC22A12) and 274 µM on xanthine oxidase [1]. Besides, the “Mouse Micronucleus” value with CHO-K1 cells is reported as “Positive”.
